The target of test [1] is O-acyltransferase (Oryctolagus cuniculus, UniProt G1SFD9). The experiment in a line: In vitro inhibition of intestinal Acyl coenzyme A:cholesterol acyltransferase in cholesterol-fed rabbits.
The subject of test [2] is Rattus norvegicus. Briefly: Tested in vivo for the ability to lower the total plasma cholesterol (TC) in an chronic peanut oil/cholesterol/cholic Acid (APCC) model at the dose of 30 mg/kg. It counts as functional.

The IC50 is the point on the concentration scale where inhibition reaches its midpoint. Read a low IC50 as inhibition by little substance.

Sequence of O-acyltransferase (G1SFD9 1-524): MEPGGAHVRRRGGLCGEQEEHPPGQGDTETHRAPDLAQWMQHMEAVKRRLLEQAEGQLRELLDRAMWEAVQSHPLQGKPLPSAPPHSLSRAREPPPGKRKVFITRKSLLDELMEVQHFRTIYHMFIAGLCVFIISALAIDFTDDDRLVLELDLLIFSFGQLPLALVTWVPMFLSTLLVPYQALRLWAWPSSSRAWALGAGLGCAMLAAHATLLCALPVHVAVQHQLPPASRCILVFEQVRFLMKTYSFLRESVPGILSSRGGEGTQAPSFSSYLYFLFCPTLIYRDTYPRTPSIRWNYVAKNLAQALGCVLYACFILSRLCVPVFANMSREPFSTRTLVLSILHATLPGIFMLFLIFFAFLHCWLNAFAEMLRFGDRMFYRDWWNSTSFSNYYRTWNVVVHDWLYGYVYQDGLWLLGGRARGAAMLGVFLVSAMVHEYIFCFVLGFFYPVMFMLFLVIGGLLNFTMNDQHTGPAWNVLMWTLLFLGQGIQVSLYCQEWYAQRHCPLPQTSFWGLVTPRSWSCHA

In turn, `CCCCCc1ccc(NC(=O)Nc2c(C(C)C)cccc2C(C)C)cc1` came in with an IC50 in test [1] of 32 nM.
On the same count and under the same terms, under `Cc1ccc(NC(=O)Nc2c(C(C)C)cccc2C(C)C)cc1` stands 250 nM.
In test [1], `CC(C)c1cccc(C(C)C)c1NC(=O)Nc1ccc(C(C)(C)C)cc1` gave a half-inhibitory concentration (IC50) of 168 nM. Further, the “Delta TC” value in test [2] is on record as -10%.
As for `CC(C)c1ccc(NC(=O)Nc2c(C(C)C)cccc2C(C)C)cc1`, the IC50 in test [1] amounted to 66 nM.
In test [1], `CCCCCCCCCCCCCc1ccc(NC(=O)Nc2c(C(C)C)cccc2C(C)C)cc1` registered an IC50 of 11 nM. Also, in test [2], the “Delta TC” value is recorded as -70%.
The like results for `CCCCCCCCCCCc1ccc(NC(=O)Nc2c(C(C)C)cccc2C(C)C)cc1` were, in that order, 9 nM and -29%.
The matching figures for `CCCCCCCCCCc1ccc(NC(=O)Nc2c(C(C)C)cccc2C(C)C)cc1`: 13 nM and -25%.
`CCCCCCCN(Cc1ccc(CC(C)(C)C)cc1)C(=O)Nc1ccc(F)cc1F` [CL-277082]: the “Delta TC” value in test [2] is listed as -54%.
`CCCCCCCCCCCCc1ccc(NC(=O)Nc2c(C(C)C)cccc2C(C)C)cc1` returned an IC50 in test [1] of 15 nM. In addition, in test [2], the “Delta TC” value is listed as -47%.
The like results for `CCCCCCCCCc1ccc(NC(=O)Nc2c(C(C)C)cccc2C(C)C)cc1` were, in that order, 9 nM and -8%.
In turn, `CCCCCCCc1ccc(NC(=O)Nc2c(C(C)C)cccc2C(C)C)cc1` had an IC50 in test [1] of 19 nM. Further, in test [2], the “Delta TC” value is recorded as -21%.
In turn, `CCCc1ccc(NC(=O)Nc2c(C(C)C)cccc2C(C)C)cc1` came in with an IC50 in test [1] of 38 nM.
Take `CCCCCCCCc1ccc(NC(=O)Nc2c(C(C)C)cccc2C(C)C)cc1`: the 50% inhibitory concentration (IC50) in test [1] came to 11 nM. Besides, in test [2], the “Delta TC” value is -29%.
The like results for `CCCCCCc1ccc(NC(=O)Nc2c(C(C)C)cccc2C(C)C)cc1` were, in that order, 26 nM and -18%.
Turning to `CCc1ccc(NC(=O)Nc2c(C(C)C)cccc2C(C)C)cc1`, it took 100 nM to reach half-maximal inhibition in test [1] (IC50).
In test [1], `CCCCCCCCCCCCCCc1ccc(NC(=O)Nc2c(C(C)C)cccc2C(C)C)cc1` showed an IC50 of 500 nM. Also, the “Delta TC” value in test [2] was -25%.
In turn, `CCCCc1ccc(NC(=O)Nc2c(C(C)C)cccc2C(C)C)cc1` returned an IC50 in test [1] of 29 nM. Further, the “Delta TC” value in test [2] is given as -12%.

These data come from ChEMBL document CHEMBL1152031, “Substituted N,N-diphenyl ureas as potent inhibitors of acyl-CoA:Cholesterol acyltransferase (ACAT)” (Bioorg Med Chem Lett, 1993).
